Results published in paper PMC6667648 (Frontiers in Microbiology, 2019).
Values after ≈ are worked out from the molar mass of the structure shown. Read-outs that look alike come from different tables or passages of the source.

How the values were obtained:
S. aureus 6061 = experiment: microbe, parasite or virus in culture; format: cell-based, Staphylococcus aureus
Description: (§1) Strains were obtained from American Type Culture Collection (ATCC, Manassas, VA) or the clinical isolate collection at Trideum Biosciences (Frederick, MD, USA). Bioluminescence strains of P. aeruginosa 19660, transfected with the Xen5 luciferase gene, and S. aureus ATCC® 49525™ (Wright), transfected with the Xen36 luciferase gene, were obtained from Perkin Elmer (Hopkinton, MA).
(§2) A single colony was aseptically picked from an agar overlay and released in 25–30 mL of pre-warmed trypticase soy broth in a culture flask. Each culture was incubated overnight in a 37°C incubator. […] Pathogen growth was measured by absorbance at 600 nm. Four replicas were included for each test agent concentration. […]

MRSA 6381 = experiment: microbe, parasite or virus in culture; format: cell-based, Staphylococcus aureus
Description: as §1, §2

MRSA 6313 = experiment: microbe, parasite or virus in culture; format: cell-based, Staphylococcus aureus
Description: as §1, §2

MRSA ATCC 33592 = experiment: microbe, parasite or virus in culture; format: cell-based, Staphylococcus aureus
Description: as §1, §2

S. aureus B-767 = experiment: microbe, parasite or virus in culture; format: cell-based, Staphylococcus aureus
Description: as §1, §2

S. epidermis ATCC 51625 = experiment: microbe, parasite or virus in culture; format: cell-based, S. epidermidis
Description: as §1, §2

K. pneumonia ATCC 10031 = experiment: microbe, parasite or virus in culture; format: cell-based, Klebsiella pneumoniae
Description: as §1, §2

K. pneumonia 6069 = experiment: microbe, parasite or virus in culture; format: cell-based, Klebsiella pneumoniae
Description: as §1, §2

K. pneumonia 6066 = experiment: microbe, parasite or virus in culture; format: cell-based, Klebsiella pneumoniae
Description: as §1, §2

E. cloacae 6053 = experiment: microbe, parasite or virus in culture; format: cell-based
Description: as §1, §2

E. cloacae 6054 = experiment: microbe, parasite or virus in culture; format: cell-based
Description: as §1, §2

P. aeruginosa ATCC 19660 = experiment: microbe, parasite or virus in culture; format: cell-based, Pseudomonas aeruginosa
Description: as §1, §2

P. aeruginosa 6186 = experiment: microbe, parasite or virus in culture; format: cell-based, Pseudomonas aeruginosa
Description: as §1, §2

P. aeruginosa ATCC 27853 [1] = experiment: microbe, parasite or virus in culture; format: cell-based, Pseudomonas aeruginosa
Description: as §1, §2

A. baumannii 6043 = experiment: microbe, parasite or virus in culture; format: cell-based, Acinetobacter baumannii
Description: as §1, §2

A. baumannii 6838 = experiment: microbe, parasite or virus in culture; format: cell-based, Acinetobacter baumannii
Description: as §1, §2

S. aureus ATCC 29213 = experiment: microbe, parasite or virus in culture; details: for MIC: Staphylococcus aureus
Description: (§3) The development of resistance was confirmed if the microorganism started growing at continuously higher concentrations. […] Evaluations were done in duplicate.

[2] = system: bioluminescent S. aureus 49525; experiment: Bioluminescence time-kill assay; format: cell-based, Staphylococcus aureus; details: antibiotics after 30 min incubation, triplicates, two independent experiments
Description: as §1
(§4) Non-invasive real-time evaluation of viability, mammalian, and bacterial cells, was performed using bioluminescent human keratinocytes (HaCaT, AddexBio, San Diego, CA) and murine L929 fibroblast cells (ATCC, Manassas, VA). The bioluminescent variants were constructed by transfection with a luciferase gene (RediFect Red-Fluc-Puromycin, Catalog #CL596002) (Hamblin et al., [2003]). […] Each concentration was performed in triplicate. Bioluminescence imaging was performed at pre-specified times (0, 15, and 30 min and 1, 3, 5, 8, and 24 h) and compared to concurrently run vehicle-controls. The 96-well plate was positioned on the stage (12.5-cm field of view) within the in vivo Imaging System (IVIS) imaging system (Caliper Life Sciences, Inc., Hopkinton, MA, USA), with an open emission filter, binning of 4, and f-stop 1, and a 1-min exposure time. The resultant photons emitted from the live cells were quantified using Living Image® software (version 4.3, Caliper Life Sciences, Inc.). […]

[3] = system: bioluminescent P. aeruginosa 19660; experiment: Bioluminescence time-kill assay; format: cell-based, Pseudomonas aeruginosa; details: antibiotics after 30 min incubation, triplicates, two independent experiments
Description: as §1, §4

A. baumannii ATCC 17978 = experiment: microbe, parasite or virus in culture; format: cell-based, Acinetobacter baumannii; details: Acinetobacter baumannii, ATCC17978, 24 h, read-out: Minimum Inhibitory Concentration (MIC)
Description: as §1, §2

P. aeruginosa ATCC 27853 [4] = experiment: Antibiotic resistance profiling, 30 serial passages; format: cell-based, Pseudomonas aeruginosa; details: for MIC: Pseudomonas aeruginosa
Description: as §3

[5] = Staphylococcus aureus, MRSA, 24 h, read-out: Minimum Inhibitory Concentration (MIC)

`CC[C@H](C)[C@H](NC(=O)[C@H](CCCCN)NC(=O)[C@H](CCC(=O)O)NC(=O)[C@H](CCCCN)NC(=O)[C@H](CO)NC(=O)[C@H](CCCCN)NC(=O)[C@H](CCCNC(=N)N)NC(=O)[C@H](Cc1ccccc1)NC(=O)[C@H](Cc1ccccc1)NC(=O)[C@H](CC(=O)O)NC(=O)CNC(=O)[C@H](CC(C)C)NC(=O)[C@@H](N)CC(C)C)C(=O)NCC(=O)N[C@@H](CCCCN)C(=O)N[C@@H](CCC(=O)O)C(=O)N[C@@H](Cc1ccccc1)C(=O)N[C@@H](CCCCN)C(=O)N[C@@H](CCCNC(=N)N)C(=O)N[C@H](C(=O)N[C@H](C(=O)N[C@@H](CCC(N)=O)C(=O)N[C@@H](CCCNC(=N)N)C(=O)N[C@H](C(=O)N[C@@H](CCCCN)C(=O)N[C@@H](CC(=O)O)C(=O)N[C@@H](Cc1ccccc1)C(=O)N[C@@H](CC(C)C)C(=O)N[C@@H](CCCNC(=N)N)C(=O)N[C@@H](CC(N)=O)C(=O)N[C@@H](CC(C)C)C(=O)N[C@H](C(=O)N1CCC[C@H]1C(=O)N[C@@H](CCCNC(=N)N)C(=O)N[C@H](C(=O)N[C@@H](CCC(=O)O)C(=O)N[C@@H](CO)C(=O)O)[C@@H](C)O)C(C)C)[C@@H](C)CC)C(C)C)[C@@H](C)CC` [LL-37] was tested, and the “Minimum Inhibitory Concentration (MIC)” value (S. aureus 6061; S. aureus 6061, 24-h incubation, mean of 3 replicates from 2 independent experiments) was >28.5 [128] μM, the “Minimum Inhibitory Concentration (MIC)” value (MRSA 6381; MRSA 6381, 24-h incubation, mean of 3 replicates from 2 independent experiments) was >28.5 [128] μM and the “Minimum Inhibitory Concentration (MIC)” value (MRSA 6313; MRSA 6313, 24-h incubation, mean of 3 replicates from 2 independent experiments) was >28.5 [128] μM. The “Minimum Inhibitory Concentration (MIC)” value (MRSA ATCC 33592; MRSA ATCC 33592, 24-h incubation, mean of 3 replicates from 2 independent experiments) was >28.5 [128] μM, the “Minimum Inhibitory Concentration (MIC)” value (S. aureus B-767; S. aureus B-767, 24-h incubation, mean of 3 replicates from 2 independent experiments) was >28.5 [128] μM and the “Minimum Inhibitory Concentration (MIC)” value (S. epidermis ATCC 51625; S. epidermis ATCC 51625, 24-h incubation, mean of 3 replicates from 2 independent experiments) was >28.5 [128] μM. The “Minimum Inhibitory Concentration (MIC)” value (K. pneumonia ATCC 10031; K. pneumonia ATCC 10031, 24-h incubation, mean of 3 replicates from 2 independent experiments) was >28.5 [128] μM, the “Minimum Inhibitory Concentration (MIC)” value (K. pneumonia 6069; K. pneumonia 6069, 24-h incubation, mean of 3 replicates from 2 independent experiments) was >28.5 [128] μM and the “Minimum Inhibitory Concentration (MIC)” value (K. pneumonia 6066; K. pneumonia 6066, 24-h incubation, mean of 3 replicates from 2 independent experiments) was >28.5 [128] μM. For the same molecule, the “Minimum Inhibitory Concentration (MIC)” value (E. cloacae 6053; E. cloacae 6053, 24-h incubation, mean of 3 replicates from 2 independent experiments) was >28.5 [128] μM, the “Minimum Inhibitory Concentration (MIC)” value (E. cloacae 6054; E. cloacae 6054, 24-h incubation, mean of 3 replicates from 2 independent experiments) was >28.5 [128] μM and the “Minimum Inhibitory Concentration (MIC)” value (P. aeruginosa ATCC 19660; P. aeruginosa ATCC 19660, 24-h incubation, mean of 3 replicates from 2 independent experiments) was 28.5 [128] μM. For the same molecule, the “Minimum Inhibitory Concentration (MIC)” value (P. aeruginosa 6186; P. aeruginosa 6186, 24-h incubation, mean of 3 replicates from 2 independent experiments) was >28.5 [128] μM, the “Minimum Inhibitory Concentration (MIC)” value (P. aeruginosa ATCC 27853 [1]; P. aeruginosa ATCC 27853, 24-h incubation, mean of 3 replicates from 2 independent experiments) was 28.5 [128] μM and the “Minimum Inhibitory Concentration (MIC)” value (A. baumannii 6043; A. baumannii 6043, 24-h incubation, mean of 3 replicates from 2 independent experiments) was 14.2 [64] μM. The “Minimum Inhibitory Concentration (MIC)” value (A. baumannii 6838; A. baumannii 6838, 24-h incubation, mean of 3 replicates from 2 independent experiments) was >28.5 [128] μM.

For `CCC[C@@H]1C[C@@H](C(=O)N[C@@H]([C@H]2O[C@H](SC)[C@H](O)[C@@H](O)[C@H]2O)[C@H](C)Cl)N(C)C1` [clindamycin], the “Fold increase in MIC value, Passage #30 vs #0” value (S. aureus ATCC 29213; S. aureus ATCC 29213) was 256 fold, the MIC (S. aureus ATCC 29213; ATCC29213, read-out: MIC on Passage #0 and Passage #1) was 0.125 mg/L (≈ 0.294 µM) and the MIC (S. aureus ATCC 29213; ATCC29213, read-out: MIC on Passage #30) was 32 mg/L (≈ 75.3 µM).

`CN[C@H](CC(C)C)C(=O)N[C@H]1C(=O)N[C@@H](CC(N)=O)C(=O)N[C@H]2C(=O)N[C@H]3C(=O)N[C@H](C(=O)N[C@H](C(=O)O)c4cc(O)cc(O)c4-c4cc3ccc4O)[C@H](O)c3ccc(c(Cl)c3)Oc3cc2cc(c3O[C@@H]2O[C@H](CO)[C@@H](O)[C@H](O)[C@H]2O[C@H]2C[C@](C)(N)[C@H](O)[C@H](C)O2)Oc2ccc(cc2Cl)[C@H]1O` [Vancomycin, vancomycin] showed an MIC (S. aureus 6061; Staphylococcus aureus, 6061, 24 h, read-out: Minimum Inhibitory Concentration (MIC)) of 2.1 µM (≈ 3.04 µg/mL), an MIC (MRSA 6381; [5]) of 1.4 µM (≈ 2.03 µg/mL) and an MIC (MRSA 6313; [5]) of 1.4 µM (≈ 2.03 µg/mL). For the same molecule, the MIC (MRSA ATCC 33592; Staphylococcus aureus, 24 h, read-out: Minimum Inhibitory Concentration (MIC)) was 1.4 µM (≈ 2.03 µg/mL), the MIC (S. aureus B-767; Staphylococcus aureus, B767, 24 h, read-out: Minimum Inhibitory Concentration (MIC)) was greater than 88.3 µM and the “Bactericidal activity in time-kill assay” value [2] was “no trace of antibacterial activity”. It also gave an MIC (S. epidermis ATCC 51625; Staphylococcus epidermidis, ATCC51625, 24 h, read-out: Minimum Inhibitory Concentration (MIC)) of 2.1 µM (≈ 3.04 µg/mL), an MIC (K. pneumonia ATCC 10031; Klebsiella pneumoniae, ATCC10031, 24 h, read-out: Minimum Inhibitory Concentration (MIC)) greater than 88.3 µM and an MIC (K. pneumonia 6069; Klebsiella pneumoniae, 6069, 24 h, read-out: Minimum Inhibitory Concentration (MIC)) greater than 88.3 µM. The MIC (K. pneumonia 6066; Klebsiella pneumoniae, 6066, 24 h, read-out: Minimum Inhibitory Concentration (MIC)) was greater than 88.3 µM, the MIC (E. cloacae 6053; Enterobacter cloacae, 6053, 24 h, read-out: Minimum Inhibitory Concentration (MIC)) was greater than 88.3 µM and the MIC (E. cloacae 6054; Enterobacter cloacae, 6054, 24 h, read-out: Minimum Inhibitory Concentration (MIC)) was greater than 88.3 µM. The “Bactericidal activity in time-kill assay” value [3] was “no trace of antibacterial activity”, the MIC (P. aeruginosa ATCC 19660; Pseudomonas aeruginosa, ATCC19660, 24 h, read-out: Minimum Inhibitory Concentration (MIC)) was greater than 88.3 µM and the MIC (P. aeruginosa 6186; Pseudomonas aeruginosa, 6186, 24 h, read-out: Minimum Inhibitory Concentration (MIC)) was greater than 88.3 µM. The MIC (P. aeruginosa ATCC 27853 [1]; Pseudomonas aeruginosa, ATCC27853, 24 h, read-out: Minimum Inhibitory Concentration (MIC)) was greater than 88.3 µM, the MIC (A. baumannii 6043; Acinetobacter baumannii, 6043, 24 h, read-out: Minimum Inhibitory Concentration (MIC)) was greater than 88.3 µM and the MIC (A. baumannii ATCC 17978) was greater than 88.3 µM. For the same molecule, the MIC (A. baumannii 6838; Acinetobacter baumannii, 6838, 24 h, read-out: Minimum Inhibitory Concentration (MIC)) was greater than 88.3 µM.

With `CNC(C)C1CCC(N)C(OC2C(N)CC(N)C(OC3OCC(C)(O)C(NC)C3O)C2O)O1` (centres unmarked) [gentamicin] the “Fold increase in MIC value, Passage #30 vs #0” value (P. aeruginosa ATCC 27853 [4]; P. aeruginosa ATCC 27853) was 4,096 fold, the MIC (P. aeruginosa ATCC 27853 [4]; ATCC27853, read-out: MIC during Passage #0 and Passage #1) was 0.125 mg/L (≈ 0.262 µM) and the MIC (P. aeruginosa ATCC 27853 [4]; ATCC27853, read-out: MIC during Passage #30) was 512 mg/L (≈ 1070 µM).
